{"source": "patent US7407984B2", "about": "“Tetraoxaspriro anti-malarials” (Okayama University, priority 2002, dated 2008)", "key": {"[1]": {"test": "physchem", "from_the_text": "As to 6-(1,2,6,7-tetraoxaspiro[7.11]nonadecy-4-yl)hexane-1-ole (N251), 5-(1,2,6,7-tetraoxaspiro[7.11]nonadecy-4-yl)pentane-1-carboxylic acid (N251-1), succinic acid mono-[6-(1,2,6,7-tetraoxaspiro[7.11]nonadecy-4-yl)hexyl]ester (N251-2), all obtained in Example 9, and 1,2,6,7-tetraoxaspiro[7.11]nonadecane (N89), artemisinin, artesunate (trade name: Guilin No. 2, Pharmaceutical Factory, Guangxi, China) as comparative examples, solubility to 5% of sodium bicarbonate water and dimethylsulfoxide (DMSO) was measured."}, "[2]": {"tested_on": "P. falciparum FCR-3 strain (ATCC30932)", "test": "Growth inhibition screening test of P. falciparum (FCR-3 strain)", "type": "cell-based", "details": "read-out: EC50 (M) P. falciparum FCR-3", "method": "(§1) A filter-sterilized RPMI1640 medium (pH 7.4) was added with human serum such that the serum made up 10% of the medium, and used in the experiment. P. falciparum were cultured in O2 at a concentration of 5%, CO2 at a concentration of 5% and N2 at a concentration of 90%, at a temperature of 36.5° C. Hematocrit value (ratio of volume of erythrocytes in erythrocyte suspension) was adjusted to be 5%, and initial infection rate of P. falciparum at the beginning of culture was adjusted to be 0.1%. A 24-well plate was used for culture and a medium was replaced everyday, and cultures were transferred at infection rate of 4%. A thin-layer smear was constructed and subjected to Giemsa staining or Diff-Qick staining, and followed by measurement under a microscope (oil immersion, 1000×), and then infection rate of P. falciparum was calculated according to the following formula. Infection rate of P. falciparum (%)={(number of infected erythrocytes)/(total number of erythrocytes)}×100 […]\n(§2) Cultured erythrocytes infected with P. falciparum were gathered by centrifugation and washed with a medium containing serum, then noninfected erythrocytes were added, and initial infection rate was adjusted to be 0.3%. Hematocrit value in this case was 3%. […] These samples were dissolved into sterilized water, dimethylformamide (DMF) or dimethylsulfoxide (DMSO), and sample solutions at prescribed concentration were prepared. 5 to 10 μl each of the sample solutions was added to a 24-well culture plate. For each sample, 2 to 3 experiments were conducted. In addition, for control, sterilized water, DMF or DMSO was added by 10 μl/well. […] The culture plate was put into a CO2—O2—N2 (5%, 5%, 90%) incubator and culture was conducted for 72 hours, then a thin-layer smear was constructed for each well, Giemsa staining or Diff-Qick staining was conducted, followed by measurement under a microscope (oil immersion, 1000×), and then infection rates of P. falciparum in a group supplemented with a reagent and in controls were calculated. The growth rate was calculated according to the following formula based on the infection rate of P. falciparum as calculated above. Growth rate (%)={([b]−[a])/([c]−[a])}×100 […]\n(§3) a: initial infection rate b: infection rate when sample solution added c: infection rate of a control\n(§4) EC50 is a value expressed by molar concentration: when growth rate of control wherein sample solution is not added to a medium of P. falciparum is defined as 100%, EC50 indicates a concentration of a sample wherein infection rate of P. falciparum in control is inhibited by 50% due to the addition of sample solution."}, "[3]": {"tested_on": "chloroquine-resistant malaria parasite of P. falciparum K-1 strain", "test": "Growth inhibition screening test of chloroquine-resistant P. falciparum (K-1 strain)", "type": "cell-based", "details": "read-out: EC50 (M) Chloroquine-resistant P. falciparum K1", "method": "as §1, §2, §3, §4"}, "[4]": {"tested_on": "mouse breast cancer-derived FM3A cells (F28-7 strain)", "test": "Growth inhibition test of mouse FM3A cells", "type": "cell-based", "details": "read-out: IC50 (M) Cancer cells of mice FM3A", "method": "An F28-7 strain, a wild-type strain of mouse breast cancer-derived FM3A cells, was used. Immobilized fetal bovine serum was added to an ES medium such that the serum made up 2% of the medium, and culture was conducted in CO2 at a concentration of 5%, and at 37° C. […] Cells which had been precultured and entered to logarithmic growth phase were diluted to be 5×10^4 cells/ml in the medium. A sample prepared at the time of the measurement of antimalarial activity of P. falciparum was used. […] For each test sample, 2 to 3 experiments were conducted, and wells added with 10 μl each of sterilized water, DMF and DMSO were tested at the same time as controls. Next, a prepared suspension of cultured cells was added, by 990 to 995 μl each, and when medium and the like were added, the final concentration of test samples became 1×10^−4 to 1×10^−6M. By pipetting gently, these substances were uniformly suspended in media.\nBased on the counted number of cells, growth rate was calculated by the following formula. Growth rate (%)={([C]−[A])/([B]−[A])}×100\nA: the number of cells at the beginning\nB: the number of cells in a control after 48 hours\nC: the number of cells 48 hours after sample addition\nBased on the calculated growth rate, IC50, cell growth inhibitory concentration, was calculated, and cytotoxicity of samples was evaluated as cell growth inhibitory activity."}, "[5]": {"tested_on": "P. falciparum versus mouse FM3A cells", "test": "Assessment of drug efficacy (chemotherapeutic coefficient, selective toxicity against P. falciparum)", "type": "cell-based", "details": "IC50 for mouse FM3A cells ÷ EC50 for P. falciparum (values fit FCR-3)", "method": "Evaluation of antimalarial activity of samples was conducted on the basis of chemotherapeutic coefficient used as an index of selective toxicity against P. falciparum. Chemotherapeutic coefficient was calculated by the following formula as a ratio of EC50 value of each sample used for P. falciparum to IC50 value of each sample used for mouse FM3A cells, and drug efficacy was assessed based on the calculated values.\nChemotherapeutic coefficient=(IC50 value of the sample for mouse […] cells)÷(EC50 value of the sample for P. falciparum)"}, "[6]": {"tested_on": "murine malaria parasites (P. berghei NK65 strain)", "test": "Parasite suppression test using mice infected with murine malaria parasite (4-day suppressive test)", "type": "in vivo", "details": "for ED50 / cure of infected mice / ED90: mice infected with P. berghei NK65; for ED50 / ED90: once a day for 4 days, orally or intraperitoneally in olive oil; for ED50: 50% of parasites suppressed; for cure of infected mice: N251 and N89: with 50 mg/kg; for ED90: 90% of parasites suppressed"}, "[7]": {"details": "Plasmodium falciparum, FCR-3 strain, 72 hours culture, infection rate by Giemsa or Diff-Qick staining"}, "[8]": {"details": "Plasmodium falciparum, K1 chloroquine-resistant strain, 72 hours culture"}, "[9]": {"details": "Mus musculus, FM3A cells, 48 hours culture, cell count, cytotoxicity"}, "[10]": {"details": "Plasmodium berghei, 96 h, read-out: ED50"}}, "note": "Where two headings read alike, the source gives them in different places.", "data": [{"compound": "C[C@@H]1CC[C@H]2[C@@H](C)C(=O)O[C@@H]3O[C@@]4(C)CC[C@@H]1[C@]32OO4", "note": "[Artemisinin, artemisinin]", "values": [{"measurement": "solubility to DMSO", "setting": "[1]", "value": "insoluble"}, {"measurement": "EC50", "setting": "[2]; [7]", "value": "1e-08", "unit": "M"}, {"measurement": "EC50", "setting": "[3]; [8]", "value": "1.3e-08", "unit": "M"}, {"measurement": "IC50", "setting": "[4]; [9]", "value": "1e-05", "unit": "M"}, {"measurement": "IC50/EC50 Chemotherapeutic coefficient", "setting": "[5]", "value": 1000}, {"measurement": "ED50", "setting": "[6]; [10]", "value": 6, "unit": "mg/kg"}, {"measurement": "cure of infected mice", "setting": "[6]", "value": "Not cured"}, {"measurement": "ED90", "setting": "[6]", "value": 10.3, "unit": "mg/kg"}]}, {"compound": "CCN(CC)CCCC(C)Nc1ccnc2cc(Cl)ccc12", "note": "(centres unmarked) [Chloroquine, chloroquine]", "values": [{"measurement": "EC50", "setting": "[2]; Plasmodium falciparum, 72 h", "value": "1.8e-08", "unit": "M"}, {"measurement": "EC50", "setting": "[3]; Plasmodium falciparum, K1, 72 h", "value": "1.3e-07", "unit": "M"}, {"measurement": "IC50", "setting": "[4]; Mus musculus, FM3A, 48 h", "value": "3.2e-05", "unit": "M"}]}, {"compound": "C1CCCCCC2(CCCCC1)OOCCCOO2", "note": "[N89, 1,2,6,7-tetraoxaspiro[7.11]nonadecane]", "values": [{"measurement": "solubility to DMSO", "setting": "[1]", "value": "insoluble"}, {"measurement": "EC50", "setting": "[2]; [7]", "value": "2.5e-08", "unit": "M"}, {"measurement": "EC50", "setting": "[3]; [8]", "value": "2.6e-08", "unit": "M"}, {"measurement": "IC50", "setting": "[4]; [9]", "value": "8.2e-06", "unit": "M"}, {"measurement": "IC50/EC50 Chemotherapeutic coefficient", "setting": "[5]", "value": 328}, {"measurement": "ED50", "setting": "[6]; [10]", "value": 12, "unit": "mg/kg"}, {"measurement": "cure of infected mice", "setting": "[6]", "value": "All cured"}, {"measurement": "ED90", "setting": "[6]", "value": 20, "unit": "mg/kg"}]}, {"compound": "OCCCCCCC1COOC2(CCCCCCCCCCC2)OOC1", "note": "[N251, 6-(1,2,6,7-tetraoxaspiro[7.11]nonadecy-4-yl)hexane-1-ole]", "values": [{"measurement": "solubility to DMSO", "setting": "[1]", "value": "insoluble"}, {"measurement": "EC50", "setting": "[2]; FCR-3 strain, 72 hours culture, infection rate by Giemsa or Diff-Qick staining", "value": "2.3e-08", "unit": "M"}, {"measurement": "EC50", "setting": "[3]; K1 chloroquine-resistant strain, 72 hours culture", "value": "2e-08", "unit": "M"}, {"measurement": "IC50", "setting": "[4]; FM3A cells, 48 hours culture, cell count, cytotoxicity", "value": "8e-06", "unit": "M"}, {"measurement": "IC50/EC50 Chemotherapeutic coefficient", "setting": "[5]", "value": 348}, {"measurement": "ED50 (mg/kg) on N89 basis", "setting": "[6]; ED50 of N251 converted to N89 basis (molar comparison)", "value": "[<7 on N89 basis] mg/kg"}, {"measurement": "ED90 (mg/kg) on N89 basis", "setting": "[6]; ED90 of N251 converted to N89 basis (molar comparison)", "value": "[13 on N89 basis] mg/kg"}, {"measurement": "cure of infected mice", "setting": "[6]", "value": "All cured"}, {"measurement": "ED50", "setting": "[6]", "value": "<10", "unit": "mg/kg"}, {"measurement": "ED90", "setting": "[6]", "value": 18, "unit": "mg/kg"}]}, {"compound": "O=C(O)CCCCCC1COOC2(CCCCCCCCCCC2)OOC1", "note": "[N251-1, 5-(1,2,6,7-tetraoxaspiro[7.11]nonadecy-4-yl)pentane-1-carboxylic acid]", "values": [{"measurement": "solubility to 5% of sodium bicarbonate water", "setting": "[1]; 5% of sodium bicarbonate water", "value": 50, "unit": "mg/mL"}]}, {"compound": "O=C(O)CCC(=O)OCCCCCCC1COOC2(CCCCCCCCCCC2)OOC1", "note": "[N251-2, succinic acid mono-[6-(1,2,6,7-tetraoxaspiro[7.11]nonadecy-4-yl)hexyl]ester]", "values": [{"measurement": "solubility to 5% of sodium bicarbonate water", "setting": "[1]", "value": 100, "unit": "mg/mL"}]}, {"compound": "C[C@H]1[C@H](OC(=O)CCC(=O)O)O[C@@H]2O[C@@]3(C)CC[C@H]4[C@H](C)CC[C@@H]1[C@@]24OO3", "note": "[artesunate]", "values": [{"measurement": "solubility", "setting": "[1]; aqueous buffer", "value": 100, "unit": "mg/mL"}]}]}
